Assay: Stability of rhEGF in soymilk, read out by bioactivity on Hela cell EGFR
Assay type: physicochemical
Conditions: in soymilk over 24 hours; Hela cell EGFR abundance
Procedure: Hela cells (obtained from American Tissue Culture Collection) were cultured in Minimum Essential Media (MEM) complemented with 10% Fetal Bovine Serum (FBS), 100 units/ml penicillin, and 100 μg/ml streptomycin. For the western blotting assay, cells grown in a 6-well plate were kept in serum-free MEM media for 24 hours. Cells were then either kept in a serum-free medium (control) or stimulated with soy milk alone, soy EGF, or commercial recombinant human EGF for different time periods as indicated. Cells were lysed by directly adding 1×SDS sample buffer (50 mM Tris-HCl, pH 6.8, 10% glycerol, 2% SDS, and 5% β-ME) to the cells after washing 3 times with 1×PBS. EGF bio-activity was determined via EGFR phosphorylation and downstream AKT phosphorylation. Total EGFR was also measured since EGFR is known to undergo internalization when stimulated with EGF. Antibodies used in western blot are anti-p-EGFR (Tyr1068) (#2234, Cell Signaling Technology), anti-total EGFR (#06-847, Millipore), anti-p-AKT (#4060, Cell Signaling Technology) and anti-Lamin B1 (#13435, Cell Signaling Technology). […] EGFR was labeled using an anti-EGFR antibody (#4267, Cell Signaling Technology) and detected with Alexa Fluor 594 Goat anti-rabbit IgG (#A11012, Life Technologies). […]

## rhEGF: commercial recombinant human EGF (Gibco, Life Technologies), used as positive control
  bioactivity of rhEGF kept in soymilk versus control rhEGF: same bioactivity as control recombinant rhEGF

Source: US20240009272A1, “METHODS, SYSTEMS, AND COMPOSITIONS FOR LEGUME-BASED PRODUCTION OF THERAPEUTIC PROTEINS AND THERAPEUTIC MEDICAL MATERIALS” (Arizona Board of Regents on Behalf of The University of …, priority 2017, published 2024)
